What is called NOAEL is the highest dose or exposure tested at which no adverse effect was seen.

The subject of this data set is Rattus norvegicus. The conditions noted are these: oral.
The mark [1] stands for this setting: short-term, duration: 28 days, gavage, F, Sprague-Dawley, Urinalysis: Volume increasep H decrease + Hematology: APTT increase, PT increase + Blood Chemistry: TP increase, Glu decrease, Cho increase….
Where [2] appears, read: short-term, duration: 28 days, gavage, M, Sprague-Dawley, Urinalysis: Volume increasep H decrease + Hematology: APTT increase, PT increase + Blood Chemistry: TP increase, Glu decrease, Cho increase….
Setting [3] is: short-term, duration: 28 days, gavage, F, Sprague-Dawley, Clinical Observation: Salivation80 + Necropsy: Stomach-Thickening, limiting ridge Forestomach-Thickening, mucosa, focal + Histopathology: ….
Where [4] appears, read: short-term, duration: 28 days, gavage, M, Sprague-Dawley, Clinical Observation: Salivation80 + Necropsy: Stomach-Thickening, limiting ridge Forestomach-Thickening, mucosa, focal + Histopathology: ….
The mark [5] stands for this setting: short-term, duration: 28 days, gavage, F, Sprague-Dawley, Clinical Observation: Staggering gait Locomotor activity decrease, Lacrimation Prone position Loose stool + Functional Observational Battery….
[6] abbreviates: short-term, duration: 28 days, gavage, M, Sprague-Dawley, Clinical Observation: Staggering gait Locomotor activity decrease, Lacrimation Prone position Loose stool + Functional Observational Battery….
The mark [7] stands for this setting: subchronic, gavage, M, Sprague-Dawley, Body Weight Changes: Body weight gain decrease + Food Consumption: Food consumption decrease + Blood Chemistry: ALP decrease, TG decrease, ….

Consider `CC(C)(C)C(O)(CCc1ccc(Cl)cc1)Cn1cncn1` (stereo not drawn) [Tebuconazole], for which the NOEL (short-term, duration: 28 days, gavage, M/F, Clinical Observation: Coma Polyuria + Body Weight Changes: Body weight gain decrease + Hematology: WBC increase, Seg% increase + Blood …) stood at 30 mg/kg-day.
With `O=C1C=CC(=O)N1c1ccc(Cc2ccc(N3C(=O)C=CC3=O)cc2)cc1` [Bismaleimide], the NOEL (subchronic, gavage, Sprague-Dawley) came to 1000 mg/kg-day.
For the compound `CC(C)c1ccc2oc3nc(N)c(C(=O)O)cc3c(=O)c2c1` [Amlenanox], the NOEL (subchronic, duration: 35 days, gavage, M/F, Wistar, Blood Chemistry: ALP increase + Absolute Organ Weight: Cecum increase, Stomach increase + Relative Organ Weight: Carcass increase, Cecum …) amounted to 200 mg/kg-day.
In the case of `CCn1cc(C(=O)[O-])c(=O)c2cc3occc3nc21.[Na+]`, the NOEL (chronic, duration: 26 weeks, gavage, M/F, Clinical Observation: Salivation + Body Weight Changes: Gain decrease + Hematology: WBC decrease + Blood Chemistry: A/G increase + Organ …) stood at 10 mg/kg-day.
As to `CO[Si](C)(C)OC` [Dimethoxydimethylsilane], the NOAEL (short-term, duration: 29 days, gavage, M/F, Sprague-Dawley, Deaths + Clinical Observation: Soiling of chin and urogenital area Soiling of muzzle + Absolute Organ Weight: Adrenal decrease, Liver …) came out at 250 mg/kg-day.
`N#Cc1cccc([N+](=O)[O-])c1` [Benzonitrile, 3-nitro-]: the NOEL (short-term, duration: 28 days, gavage, M/F, Deaths + Clinical Observation: Paralytic gait Piloerection Reddish tears + Body Weight Changes: Body weight gain decrease + Hematology: WBC…) was under 0.5 mg/kg-day.
`O=[N+]([O-])c1cc([As](=O)(O)O)ccc1O` [4-Hydroxy-3-nitrophenylarsonic acid]: the NOEL (subchronic, duration: 13 weeks, diet, M/F, Fischer 344, Deaths + Clinical Observation: Ruffled fur Hyperexcitability Ataxia Trembling Slight inactivity + Body Weight Changes: decrease + Relative …) was under 4.8 mg/kg-day.
`CCC(C)=NO` [2-Butanone oxime]: the NOEL is, setting by setting: (subchronic, drinking water, F, Fischer 344, Clinical Observation: Dark eyes Pale ears + Body Weight Changes: decrease + Water Consumption: decrease + Hematology: Hct decrease, Hgb …) under 30 mg/kg-day; (subchronic, drinking water, M/F, Fischer 344, Clinical Observation: Dark eyes Pale ears + Body Weight Changes: decrease + Water Consumption: decrease + Hematology: Hct decrease, Hgb …) under 47.4 mg/kg-day.
On to `[CH3][Sn]([Cl])([Cl])[Cl]` [Trichloromethylstannane], for which, under “subchronic, duration: 90 days, diet, M/F, Wistar, Food Consumption: increase + Urinalysis: Volume increase, Specific gravity decrease, pH increase, Crystals increase + Hematology: RBC …”, the NOAEL came to 14.4 mg/kg-day.
Take `Nc1cc(C(=O)O)ccc1Cl` [3-Amino-4-chlorobenzoic acid]: the NOEL (subchronic, gavage, M, Sprague-Dawley, Clinical Observation: Transient salivation + Histopathology: Mesentric lymph node-Granuloma R) came out at 200 mg/kg-day.
On to `O=C/C=C/c1ccccc1` [(2E)-3-Phenylprop-2-enal], for which the NOEL by setting is: (chronic, duration: 14 weeks, diet, F, Fischer 344, Body Weight Changes: decrease + Food Consumption: decrease + Hematology: Ret decrease, Plt decrease + Blood Chemistry: Bile acid increase, …) under 300 mg/kg-day; (chronic, duration: 14 weeks, diet, M/F, Fischer 344, Body Weight Changes: decrease + Food Consumption: decrease + Hematology: Ret decrease, Plt decrease + Blood Chemistry: Bile acid increase, …) under 320 mg/kg-day.
With `CCNc1cccc2ccccc12` [1-Naphthalenamine, N-ethyl-], the NOEL (short-term, duration: 28 days, gavage, M/F, Sprague-Dawley, Deaths + Clinical Observation: Brown urine Soft feces + Functional Observational Battery: Motor activity decrease + Body Weight Changes: …) is 12 mg/kg-day.
Turning to `Oc1cccc(O)c1` [Resorcinol], the NOEL (subchronic, duration: 13 weeks, gavage, M/F, Fischer 344, Deaths + Clinical Observation: Tremor + Blood Chemistry: Ch E decrease + Absolute Organ Weight: Adrenal increase + Relative Organ Weight: …) is under 32 mg/kg-day.
`CC(O)CNCC(C)O` (stereo not drawn) [Diisopropanolamine]: the no observed adverse effect level (NOAEL) is 500 mg/kg-day (subchronic, duration: 90 days, drinking water, F, Fischer 344, Water Consumption: decrease + Urinalysis: Volume decrease, Specific gravity increase + Absolute Organ Weight: Kidney increase500 + Relative…); 100 mg/kg-day (subchronic, duration: 90 days, drinking water, M/F, Fischer 344, Water Consumption: decrease + Urinalysis: SG increase, Volume decrease + Absolute Organ Weight: Kidney increase + Relative Organ Weight: …); 100 mg/kg-day (subchronic, duration: 90 days, drinking water, M, Fischer 344, Water Consumption: decrease + Urinalysis: Volume decrease, Specific gravity increase + Absolute Organ Weight: Kidney increase500 + Relative…).
Regarding `C1CCC2CCCCC2C1` (stereo not drawn) [Decalin], under setting [1], the LOEL was found to be 200 mg/kg-day and the NOEL was 40 mg/kg-day. Further, under setting [2], the LOEL came to 40 mg/kg-day and the NOEL was under 40 mg/kg-day.
For `CCCCN(CCCC)C(=S)[S-].CCCCN(CCCC)C(=S)[S-].[Cu+2]` [Bis(N,N-dibutyldithiocarbamato)copper], under “subchronic, gavage, M, Sprague-Dawley, Urinalysis: Protein increase, Cl increase + Blood Chemistry: Cho increase + Relative Organ Weight: Adrenal decrease”, the NOEL was under 40 mg/kg-day.
On to `O=C1c2ccccc2C(=O)c2c(Cl)cccc21` [1-Chloroanthraquinone], for which the NOEL (short-term, duration: 28 days, gavage, M/F, Sprague-Dawley, Clinical Observation: Brown urine + Functional Observational Battery: Landing foot splay decrease, Locomotor activity decrease + Food …) was under 4 mg/kg-day.
With `C=Cc1ccncc1` [4-Vinylpyridine], under setting [3], the LOEL is 80 mg/kg-day and the NOEL came to 40 mg/kg-day. For the same compound, under setting [4], the LOEL was 40 mg/kg-day and the NOEL turned out to be 20 mg/kg-day.
Consider `O=C1Oc2cc3c(cc2=C1c1ccccc1)OC(=O)C=3c1ccc(OCC2CCCO2)cc1` (stereo not drawn), for which the NOEL (short-term, duration: 28 days, gavage) stood at 1000 mg/kg-day.
Turning to `CCCCCCC[CH2][Sn]([S]CC(=O)OCCCCCC(C)C)([S]CC(=O)OCCCCCC(C)C)[S]CC(=O)OCCCCCC(C)C`, the NOAEL reads like this: (subchronic, duration: 13 weeks, diet, M, CIVO, Wistar-derived, Relative Organ Weight: Kidney increase, Liver decrease + Histopathology: Kidney-Increased granularity, tubular epithelial cells) 28.8 mg/kg-day; (subchronic, duration: 13 weeks, drinking water, M/F, CIVO, Wistar-derived, Urinalysis: Epithelial cell increase, Crystals increase + Hematology: HGB decrease + Blood Chemistry: BUN increase + Relative Organ Weight: …) under 45.6 mg/kg-day.
Regarding `OCC1CCCO1` (stereo not drawn) [Tetrahydrofurfuryl alcohol], the NOEL (short-term, duration: 28 days, gavage, M/F, Sprague-Dawley, Clinical Observation: Locomotor activity increase, Locomotor activity decrease, Prone position + Functional Observational Battery: Grip …) came to 40 mg/kg-day.
In the case of `CC(O)(P(=O)(O)O)P(=O)(O)O` [Etidronic acid], the no observed adverse effect level (NOAEL) (subchronic, duration: 90 days, diet, M/F, Body Weight Changes: decrease + Food Consumption: decrease + Hematology: RBC increase, HGB decrease, HCT decrease + Absolute Organ Weight: …) was over 2880 mg/kg-day.
On to `Oc1cccc(Br)c1` [Phenol, 3-bromo-], for which the NOEL (short-term, duration: 28 days, gavage, M/F, Sprague-Dawley, Clinical Observation: Salivation + Body Weight Changes: Weight gain decrease + Water Consumption: increase + Urinalysis: Volume increase + …) was 300 mg/kg-day.
For the compound `Nc1nn[nH]n1` [Tetrazol-5-ylamine], under “subchronic, gavage, M, Sprague-Dawley, Blood Chemistry: BUN increase”, the NOEL was determined as 200 mg/kg-day.
In the case of `CC(=O)CC(=O)Nc1ccc(-c2ccc(NC(=O)CC(C)=O)c(C)c2)cc1C`, the NOEL (short-term, duration: 28 days, gavage, M/F, Crl:CD(SD), Body Weight Changes: decrease + Food Consumption: decrease + Water Consumption: decrease + Urinalysis: Volume decrease + Blood Chemistry: …) was determined as 8 mg/kg-day.
Take `COC(=O)CCS` [Methyl 3-mercaptopropionate]: the NOAEL (subchronic, gavage, M, Wistar, Clinical Observation: Pushed their heads through the bedding + Relative Organ Weight: Liver increase + Histopathology: Stomach: Hyperplasia…) was 100 mg/kg-day.
Take `NC(=O)Nc1ccccc1` [1-Phenylurea]: under setting [5], the LOEL was 400 mg/kg-day and the NOEL worked out at 200 mg/kg-day. Also, under setting [6], the LOEL amounted to 200 mg/kg-day and the NOEL was determined as 100 mg/kg-day.
As to `COc1ccc(OC)c(N)c1` [Benzenamine, 2,5-dimethoxy-], the NOEL (short-term, duration: 28 days, gavage, M/F, Clinical Observation: Salivation + Body Weight Changes: Weight gain decrease + Food Consumption: decrease + Hematology: HGB decrease, RET …) was found to be 1 mg/kg-day.
Take `Nc1ccccc1OCCOc1ccccc1N` [2,2'-[Ethane-1,2-diylbis(oxy)]dianiline]: under “short-term, duration: 28 days, gavage, M/F, Blood Chemistry: Alb increase, T-Bil increase, TG decrease, GPT increase, TP increase + Organ Weight: Liver increase, Kidney increase + …”, the NOEL is under 50 mg/kg-day.
Take `COCCOCCOCCO` [2-[2-(2-Methoxyethoxy)ethoxy]ethanol]: the NOAEL (chronic, duration: 91 days, drinking water, M/F, Sprague-Dawley, Deaths + Body Weight Changes: Body weight gain decrease + Food Consumption: decrease + Water Consumption: decrease + Absolute Organ Weight: …) was found to be 400 mg/kg-day.
Consider `O=c1[nH]c(=O)n([C@@H]2O[C@H](CO)[C@@H](O)[C@@H]2O)cc1/C=C/Br` [Bravavir], for which the NOEL (chronic, duration: 182 days, gavage, M/F, Wistar, Deaths + Clinical Observation: Soiled eyelid Smudge, perioral, nose Flush, ear auricle Polyuria Soiled perineal region Decrease or loss of …) worked out at 80 mg/kg-day.
As to `C1=CCCC=CCCC=CCC1` [1,5,9-Cyclododecatriene], for the setting “subchronic, duration: 42 days, gavage, M, CD(SD), Clinical Observation: Salivation + Body Weight Changes: Weight gain decrease + Hematology: PT increase, APTT increase, Fibrinogen increase…”, the NOEL worked out at 12 mg/kg-day. Further, the NOAEL (subchronic, duration: 55 days, gavage, M, Sprague-Dawley, Body Weight Changes: Weight gain decrease + Food Consumption: increase + Urinalysis: Vol increase + Blood Chemistry: TG decrease + Absolute …) was 30 mg/kg-day.
On to `C1CN2CCN1CC2` [1,4-Diazabicyclo[2.2.2]octane], for which the no-observed-adverse-effect level (NOAEL) (short-term, duration: 29 days, gavage, M, Sprague-Dawley, Body Weight Changes: Weight gain decrease + Food Consumption: decrease + Histopathology: Kidney: Inflammation, chronic Kidney: Proliferation) was found to be 100 mg/kg-day.
For `C(CCCOCC1CO1)CCOCC1CO1` (stereo not drawn) [1,6-Hexanediol diglycidyl ether], under setting [7], the NOAEL was 30 mg/kg-day and the NOEL was 30 mg/kg-day.
As for `CN(C)CCCCCCN(C)C` [N,N,N',N'-Tetramethyl-1,6-hexanediamine], the NOEL (subchronic, gavage, M, Sprague-Dawley, Histopathology: Lungs/ bronchus a"Vacuolation, bronchial epithelium Epididymis- Decrease, sperm) amounted to 10 mg/kg-day.
As to `CN1CCNCC1` [1-Methylpiperazine], under “subchronic, gavage, M, Sprague-Dawley, Body Weight Changes: Gain decrease(trend)Gain rate decrease + Hematology: WBC decrease(trend)RET decrease, Eosinophil ratio decrease + Blood…”, the NOEL stood at 80 mg/kg-day.
Take `CCCCC(CC)COC(=O)CS` (stereo not drawn) [2-Ethylhexyl thioglycolate]: under “short-term, duration: 28 days, diet, M, Fischer 344, Hematology: WBC decrease Lymph decrease + Blood Chemistry: AST increase”, the NOAEL turned out to be 0.2%.

Source of the values: EPA's ToxValDB 9.5.
